Measurements as given in patent EP0139358B1, “N6-substituted diarylalkyl adenosines, processes for their production and pharmaceutical compositions comprising the same” (priority 1983, dated 1985).
Like-named read-outs stand apart in the source and are kept apart here.

Tests used:
[1] = test system: Swiss-Webster male mice; assay: Mouse Activity and Screen Test (MAST): inhibition of spontaneous locomotion (LI); assay type: in vivo; conditions: for Inhibition of mouse locomotor activity: one hour prior to testing, vs vehicle; for minimal effective dose: Mus musculus, ip, read-out: MAST LI LAD
Description: (§1) Treatments are administered intraperitoneally one hour prior to testing. […] Compounds are dissolved or suspended in 0.2% Methocel. Control animals are injected with Methocel.
Immediately following the screen test, the final phase of testing is initiated by placing each group of three mice in one actophotometer (Life Sciences, 22, 1067-1076, 1978). The actophotometer consists of a cylindrical chamber whose center is occupied by another cylinder which contains the illumination for six photocells located on the perimeter of the chamber. Six light-beam interruptions equal one count. Locomotor activity is recorded by computer at ten minute intervals for 60 minutes. […]

[2] = test system: Swiss-Webster male mice; assay: Mouse Activity and Screen Test (MAST): screen test (ST); assay type: in vivo; conditions: for Inhibition of screen test failure: percent of mice falling off the screen; for MAST ST LAD: lowest dose at which an A rating (60-100%) is achieved, screen test, intraperitoneally
Description: as §1
The compounds are identified in the Examples.

[3] = test system: conscious rat; assay: Antihypertensive evaluation (AHP3): aortic blood pressure and heart rate; assay type: in vivo; conditions: lowest dose tested at which a >10% reduction in blood pressure for four consecutive hours is achieved; conscious rat; read-out: AHP3 BP LAD
Source text: […] EVALUATION (AHP3)
This test procedure is described in the following paragraphs.
A Method for the Direct Monitoring of Aortic Blood Pressure and Heart Rate from Conscious Rats
The continuous monitoring of pulsatile blood pressure (BP) from unrestrained conscious rats surgically equipped with polyethylene cannulas was accomplished by means of a computer assisted data capture scheme (CADCS). The absic elements of the methodology are the cannulation procedure and the CADCS.
Cannulation Procedure: Rats were anesthetized with Telazol (1:1 tiletamine HCI and zolazepam HCI); 20-40 mg/kg IM and the descending aorta exposed via a midline incision. Cannulas fabricated from polyethylene tubing were inserted into the aorta via an undersized puncture hole below the renal arteries. The puncture hole was made by a 23 G disposable needle with a section of the aorta clamped off above and below the puncture site. The cannulas, consisting of a PE100 (0.86 mm ID) body and a PE50 (0.58 mm ID) tip, were attached to a trocar, inserted through the psoas muscle, and passed subcutaneously along the midline of the back and externalized between the ears. The cannulas were anchored to the psoas muscle and between the scalulae (3-0 green braided suture). The midline incision was closed in two steps (muscle first, skin second) using continuous over-and over sutures (4-0 chronic). Each rat was then given penicillin 30,000 units subcutaneously (Penicillin G Procaine Sterile Suspension).
The rats were fitted with a harness-spring-swivel assembly designed to protect the cannula and to provide the rat relative freedom of movement. The harnesses were fabricated from nylon hook and loop tape cemented to a metal plate to which spring wires (18-8 stainless steel), were attached to brass swivels. Each polyethylene cannula was channeled through a spring and connected through a swivel to a pressure transducer (Model P23Gb; Statham Instruments; Hato Rey, Puerto Rico) and an infusion pump (Sage model 234-7; Orion Research, Cambridge, Ma) by means of PE100 tubing. While on test, each rat received a continuous slow infusion of heparinized saline solution (approximately 400 I or 40 units of heparin per 24 hour period) to prevent clot formation. Additional "flushes" of the cannula with heparinized saline were carried out when the aortic pulse pressure (systolic minus diastolic) was less than 25 mm Hg.
CADCS: The pulsatile blood pressure and heart rate of each of 32 rats was monitored every minute by means of two in-laboratory microcomputers communicating directly with a data concentrator computer. The data were first stored on the data concentrator disk and then transferred to a magnetic tape for analysis and report generation by the main research computer. The overall scheme involved modulating the primary signal from the pressure transducer, generating the primary data set of the one-minute values for systolic, diastolic, and mean blood pressures and heart rate by the in-lab microcomputer and the storage, analysis, and report generation by the main research computer.
The transducers were connected to analog signal conditioning modules. The modules providing a regulated excitation voltage for the transducers, amplification as required to interface the microprocessors and an active low pass filter to compensate for the pressure wave form distortion produced by the flexible, fluid filled, narrow cannula.
The microcomputers (one for each of two groups of 16 rats) were connected to the input components through the module interface units, an analog-to-digital converter for the pressure wave form signal and the digital inputs for the dose and event marker switches. The microcomputer controlled the sequential acquisition of data from the modular interface units through an internal synchronous time-of-day clock/ time base generator. […]

[4] = test system: rat heart; assay: Coronary blood flow (PCS2A): isolated perfused heart; conditions: for EC50: isolated perfused rat heart
Description: CORONARY BLOOD FLOW (PCS2A)
Male rats (400-600 gms) are pretreated with Na haparin 2000 units and anesthetized with Na pentobarbital (50 mg/kg) administered intraperitoneally. Once anesthetized, the rat heart is rapidly excised, the ascending aorta fitted to the aortic perfusion cannula, and […] with a ligature. The coronary arteries are perfused initially at a rate of about 15 ml/min for two to three minutes, afterwhich they are perfused at constant pressure of 70 mm Hg and temperature of 37°C. The electrocardiogram (ECG) is recorded using two platinum electrodes positioned at the base and apex of the left ventricle. A second heart is excised, cannulated, and perfused by the same method outlined above. Both hearts are tested in parallel. The standard physiological salt solution (PSS) is a modified Krebs-Hanseleit bicarbonate buffer of the following composition in mM concentration: NaCI, 127; NaHC03, 25; dextrose, 5.5; Na Pyruvate, 2.0: KCI, 4.7; MgS04, 1.1; KH 2P04, 1.2; CaCl2·2H2O, 2.5; CaNa2 EDTA, 0.05.
A 30-minute stabilization period is observed before starting the test protocol.
The microprocessor control system is a servo mechanism which permits coronary perfusion pressure (CPP) and drug concentration to be maintained constant independent of changes in coronary flow. The level at which CPP and drug concentration are maintained can be changed by commands communicated through the microprocessor keyboard. Dose-response curves are carried out by perfusing concentrated drug solution (DC) at rates proportional to total coronary flow (CFT). Drug concentrations are increased by proportionate increases in the rate of DC infusion over CFT via the microprocessor keyboard. The proportional flow rates for DC:CFT is about .0002:1 at the low end and .02: at the high end of the dose-response curve. Dose-response curves encompassing at least two log doses are carried out by preparing two DCs with a concentration difference of 1:100. Following the first dose range of two log doses, the DC are switched, proportional pumping rate adjusted, and the dose-response curve continued for another two log doses. The standard dose-response curve is carried out in one-half log dose increments starting at a subthreshold dose and ending at a dose which produces near maximal response in activity. Standard reference compounds are tested over the range of 10-^9 to 10-^6M.
Measurements are for heart rate (HR) and coronary flow (CF). Units are: HR, beats/minute (bpm) and CF, milliliters/minute (ml/min). HR is calculated from the ECG strip chart recording and CF is calculated by recording analog outputs from pumps 1 and 2. Outputs from pump #1 = CFT and the output from pump #2 = CF for heart B (CFg). CF for heart A (CFA) is calculated (CFT - CFB = CFA).
Using the above technique, the effects of the compound of Examples 1 and 2 are as follows: […]

[5] = coronary flow, read-out: PCS2A CF ED50
[6] = heart rate, read-out: PCS2A HR ED50

Row | MAST ST LAD [2] | EC50 [4, 5] | SMILES | minimal effective dose [1] | minimal effective dose [3] | EC50 [4, 6] | also measured
1 | >100 mg/kg | 3000 nM | OC[C@H]1O[C@@H](n2cnc3c(NCCC(c4ccccc4)c4ccccc4)ncnc32)[C@H](O)[C@@H]1O [Example 2, N^6-(3,3-Diphenylpropyl)adenosine] | 100 mg/kg | > 30 mg/kg | 6000 nM | Inhibition of mouse locomotor activity ([1]; 10 mg/kg intraperitoneally): −9%; Inhibition of mouse locomotor activity ([1]; 30 mg/kg intraperitoneally): 13%; Inhibition of mouse locomotor activity ([1]; 100 mg/kg intraperitoneally): 60%; Inhibition of screen test failure ([2]; 10 mg/kg intraperitoneally): 0%; Inhibition of screen test failure ([2]; 30 mg/kg intraperitoneally): 0%; Inhibition of screen test failure ([2]; 100 mg/kg intraperitoneally): 0%; activation at 1 µM ([4]; Dose 1 × 10^-6 Molar, coronary flow change, isolated rat heart, read-out: CF): 47%; activation at 0.1 µM ([4]; Dose 1 × 10^-7 Molar, coronary flow change, isolated rat heart, read-out: CF): 42%; activation at 0.01 µM ([4]; Dose 1 × 10^-8 Molar, coronary flow change, isolated rat heart, read-out: CF): 26%; activation at 3 µM ([4]; Dose 3 × 10^-6 Molar, coronary flow change, isolated rat heart, read-out: CF): 48%
2 | >100 mg/kg | 14 nM | OC[C@H]1O[C@@H](n2cnc3c(NCCCC(c4ccccc4)c4ccccc4)ncnc32)[C@H](O)[C@@H]1O [Example 6, N^6-(4,4-Diphenylbutyl)adenosine] | 100 mg/kg | > 30 mg/kg | > 1000 nM | 
3 | >100 mg/kg | > 3000 nM | OC[C@H]1O[C@@H](n2cnc3c(NCCCCC(c4ccccc4)c4ccccc4)ncnc32)[C@H](O)[C@@H]1O [Example 7, N^6-(5,5-Diphenylpentyl)adenosine] | 100 mg/kg | > 10 mg/kg | 3000 nM | 
4 | 100 mg/kg |  | Cc1cccc(C(CNc2ncnc3c2ncn3[C@@H]2O[C@H](CO)[C@@H](O)[C@H]2O)c2ccccc2)c1 (stereo partly shown) [Example 9, N^6-(2-(3-Methylphenyl)-2-phenylethyl)adenosine] | ≤ 10 mg/kg |  |  | 
5 | >100 mg/kg | 50 nM | OC[C@H]1O[C@@H](n2cnc3c(NCC(c4ccccc4)c4ccc(F)cc4)nc(Cl)nc32)[C@H](O)[C@@H]1O (stereo partly shown) [Example 11, N^6-(2-(4-Fluorophenyl)-2-phenylethyl)-2-chloroadenosine] | 30 mg/kg | 10 mg/kg | > 3000 nM | 
6 | >100 mg/kg |  | OC[C@H]1O[C@@H](n2cnc3c(NCC(c4ccc(F)cc4)c4ccc(F)cc4)ncnc32)[C@H](O)[C@@H]1O [Example 13, ^N'-(^2,2-Di-(4-fluorophenyl)ethyl)adenosine] | 3 mg/kg | 10 mg/kg |  | 
7 | >100 mg/kg |  | OC[C@H]1O[C@@H](n2cnc3c(NCC(c4ccccc4)c4cccc(Cl)c4)ncnc32)[C@H](O)[C@@H]1O (stereo partly shown) [Example 14, N^6-(2-(3-Chlorophenyl)-2-phenylethyl)adenosine] | 1 mg/kg |  |  | 
8 | >100 mg/kg |  | Nc1nc(NCC(c2ccccc2)c2ccc(Cl)cc2)c2ncn([C@@H]3O[C@H](CO)[C@@H](O)[C@H]3O)c2n1 (stereo partly shown) [Example 16, N^6-(2-(4-Chlorophenyl)-2-phenylethyl)-2-aminoadenosine] | 100 mg/kg | > 10 mg/kg |  | 
9 | >100 mg/kg | > 3000 nM | OC[C@H]1O[C@@H](n2cnc3c(NCC(c4ccc(Cl)cc4)c4ccc(Cl)cc4)ncnc32)[C@H](O)[C@@H]1O [Example 17, N^6-(2,2-Di(4-chlorophenyl)ethyl)adenosine] | 100 mg/kg |  | > 3000 nM | 
10 | >30 mg/kg |  | Nc1nc(NCC(c2ccc(Cl)cc2)c2ccc(Cl)cc2)c2ncn([C@@H]3O[C@H](CO)[C@@H](O)[C@H]3O)c2n1 [Example 18, N^6-(2,2-Di-(4-chlorophenyl)ethyl)-2-aminoadenosine] | > 30 mg/kg | > 10 mg/kg |  | 
11 | >30 mg/kg | > 3000 nM | COC(=O)C(CNc1ncnc2c1ncn2[C@@H]1O[C@H](CO)[C@@H](O)[C@H]1O)(c1ccccc1)c1ccccc1 [Example 24, N^s-(2-Carbomethoxy-2,2-diphenylethyl)adenosine] | 30 mg/kg |  | 3000 nM | 
12 | >100 mg/kg |  | O=C(OC[C@H]1O[C@@H](n2cnc3c(NCC(c4ccccc4)c4ccccc4)ncnc32)[C@H](OC(=O)c2ccccc2)[C@@H]1OC(=O)c1ccccc1)c1ccccc1 [Example 26, 2',3',5'-Tri-0-benzoyl-N^6-(2,2-diphenylethyl)adenosine] | 10 mg/kg | 10 mg/kg |  | 
13 | >100 mg/kg |  | CC(=O)OC[C@H]1O[C@@H](n2cnc3c(NCC(c4ccccc4)c4ccccc4)nc(Cl)nc32)[C@H](OC(C)=O)[C@@H]1OC(C)=O [Example 27, 2',3',5'-Tri-O-acetyl-N^6-(2,2-diphenylethyl)-2-chloroadenosine] | 30 mg/kg |  |  | 
14 | >30 mg/kg |  | O=P(O)(O)OC[C@H]1O[C@@H](n2cnc3c(NCC(c4ccccc4)c4ccccc4)ncnc32)[C@H](O)[C@@H]1O [Example 28, N^6-(2,2-Diphenylethyl)adenosine-5'-phosphate] | ≤ 3 mg/kg |  |  | 
15 | >100 mg/kg |  | CC1(C)O[C@@H]2[C@H](O1)[C@@H](CO)O[C@H]2n1cnc2c(NCC(c3ccccc3)c3ccccc3)ncnc21 [Example 29, 2',3'-0-Isopropylidene-N6-(2,2-diphenylethyl)adenosine] | 30 mg/kg | 10 mg/kg |  | 
